This note sets out measurements from patent US11541055B2, “Inhibitors of human immunodeficiency virus replication” (ViiV Healthcare UK (No. 5) LIMITED, priority 2018, dated 2023).

In general, pEC50 refers to −log10 of the EC50, conventionally taken in molar units. A word on the CC50: it is the concentration at which the toxic effect on the cells reaches its halfway point.

SMILES strings stand for the structures. pEC50: −log10 of the molar value.

Data set [1] deals with recombinant NL4-3 virus (Renilla luciferase) in MT-2 cells. The data set is described as follows: HIV cell culture assay (antiviral activity, luciferase readout). The class given is cell-based. The following applies: Renilla, NL43. On the procedure:
HIV cell culture assay—MT-2 cells, 293T cells and the proviral DNA clone of NL4-3 virus were obtained from the NIH AIDS Research and Reference Reagent Program. MT-2 cells were propagated in RPMI 1640 media supplemented with 10% heat inactivated fetal bovine serum (FBS), […]. The 293T cells were propagated in DMEM media supplemented with 10% heat inactivated FBS, […] penicillin G and […] streptomycin. A recombinant NL40.3 proviral clone, in which a section of the nef gene was replaced with the Renilla luciferase gene, was used to make the reference virus used in these studies. The recombinant virus was prepared through transfection of the recombinant NL4-3 proviral clone into 293T cells using Transit-293 Transfection Reagent from Minis Bio LLC (Madison, Wis.). Supernatent was harvested after 2-3 days and the amount of virus present was titered in MT-2 cells using luciferase enzyme activity as a marker by measuring luciferase enzyme activity. Luciferase was quantitated using the EnduRen Live Cell Substrate from Promega (Madison, Wis.). Antiviral activities of compounds toward the recombinant virus were quantified by measuring luciferase activity in MT-2 cells infected for 4-5 days with the recombinant virus in the presence of serial dilutions of the compound.
The 50% effective concentration (EC50) was calculated by using the exponential form of the median effect equation where (Fa)=1/[1+(ED50/drug conc.)m] (Johnson V A, Byington R T. Infectivity Assay. In Techniques in HIV Research. ed. Aldovini A, Walker B D. 71-76. New York: Stockton Press. 1990). The 50% inhibitory concentration (EC50) was calculated by using the exponential form of the median effect equation where percent inhibition=1/[1+(EC50/drug concentration)m], where m is a parameter that reflects the slope of the concentration-response curve.

Data set [2] can be described thus: Compound cytotoxicity, XTT-based colorimetric assay. It is filed as cell-based. The following applies: human; uninfected MT2 cells, day 4, XTT. On the procedure: Compound cytotoxicity and the corresponding CC50 values were determined using the same protocol as described in the antiviral assay except that uninfected cells were used. Cytotoxicity was assessed on day 4 in uninfected MT2 cells by using a XTT (2,3-bis[2-Methoxy-4-nitro-5-sulfophenyl]-2H-tetrazolium-5-carboxyanilide inner salt)-based colorimetric assay (Sigma-Aldrich, St Louis, Mo.).

Consider `COc1cnc(-c2ccc3c(=O)n(-c4ccc(Cl)c5c(NS(C)(=O)=O)nn(CC(F)(F)F)c45)c([C@H](Cc4cc(F)cc(F)c4)NC(=O)Cn4nc(C(F)F)c5c4C(F)(F)[C@@H]4C[C@H]54)nc3c2)nc1` (atropisomer, axis not shown) [Example 115, N-[(1S)-1-{3-[4-chloro-3-methanesulfonamido-1-(2,2,2-trifluoroethyl)-1H-indazol-7-yl]-7-(5-methoxypyrimidin-2-yl)-4-oxo-3,4-dihydroquinazolin-2-yl}-2-(3,5-difluorophenyl)ethyl]-2-[(2S,4R)-9-(difluoromethyl)-5,5-difluoro-7,8-diazatricyclo[4.3.0.0^2,^4]nona-1(6),8-dien-7-yl]acetamide], for which the pEC50 in data set [1] was 10.01. In data set [2], this molecule yielded a CC50 at 4 days of more than 500 nM.

`COc1ncc(-c2ccc3c(=O)n(-c4ccc(Cl)c5c(NS(C)(=O)=O)nn(CC(F)(F)F)c45)c([C@H](Cc4cc(F)cc(F)c4)NC(=O)Cn4nc(C(F)F)c5c4C(F)(F)[C@@H]4C[C@H]54)nc3c2)cn1` (atropisomer, axis not shown) [Example 116, N-[(1S)-1-{3-[4-chloro-3-methanesulfonamido-1-(2,2,2-trifluoroethyl)-1H-indazol-7-yl]-7-(2-methoxypyrimidin-5-yl)-4-oxo-3,4-dihydroquinazolin-2-yl}-2-(3,5-difluorophenyl)ethyl]-2-[(2S,4R)-9-(difluoromethyl)-5,5-difluoro-7,8-diazatricyclo[4.3.0.0^2,^4]nona-1(6),8-dien-7-yl]acetamide]: in data set [1], the pEC50 is 10.14. Also, the CC50 at 4 days in data set [2] is more than 500 nM.

Take `Cn1nc(NS(C)(=O)=O)c2c(Cl)ccc(-n3c([C@H](Cc4cc(F)cc(F)c4)NC(=O)Cn4nc(C(F)F)c5c4C(F)(F)[C@@H]4C[C@H]54)nc4cc(-c5cccc(C(F)F)n5)ccc4c3=O)c21` (atropisomer, axis not shown) [Example 117]: the negative-log EC50 (pEC50) in data set [1] is 10.16. Further, the CC50 at 4 days in data set [2] is more than 500 nM.

As for `Cc1cc(-c2ccc3c(=O)n(-c4ccc(Cl)c5c(NS(C)(=O)=O)nn(C)c45)c([C@H](Cc4cc(F)cc(F)c4)NC(=O)Cn4nc(C(F)F)c5c4C(F)(F)[C@@H]4C[C@H]54)nc3c2)nc(CO)n1` (atropisomer, axis not shown) [Example 118, N-[(1S)-1-[3-(4-chloro-3-methanesulfonamido-1-methyl-1H-indazol-7-yl)-7-[2-(hydroxymethyl)-6-methylpyrimidin-4-yl]-4-oxo-3,4-dihydroquinazolin-2-yl]-2-(3,5-difluorophenyl)ethyl]-2-[(2S,4R)-9-(difluoromethyl)-5,5-difluoro-7,8-diazatricyclo[4.3.0.0^2,^4]nona-1(6),8-dien-7-y]acetamide], the pEC50 in data set [1] was 10.32. Moreover, the CC50 at 4 days in data set [2] is more than 500 nM.

Regarding `Cc1nc(C)c(F)c(-c2ccc3c(=O)n(-c4ccc(Cl)c5c(NS(C)(=O)=O)nn(C)c45)c([C@H](Cc4cc(F)cc(F)c4)NC(=O)Cn4nc(C(F)F)c5c4C(F)(F)[C@@H]4C[C@H]54)nc3c2)n1` (atropisomer, axis not shown) [Example 119, N-[(1S)-1-[3-(4-chloro-3-methanesulfonamido-1-methyl-1H-indazol-7-yl)-7-(5-fluoro-2,6-dimethylpyrimidin-4-yl)-4-oxo-3,4-dihydroquinazolin-2-yl]-2-(3,5-difluorophenyl)ethyl]-2-[(2S,4R)-9-(difluoromethyl)-5,5-difluoro-7,8-diazatricyclo[4.3.0.0^2,^4]nona-1(6),8-dien-7-yl]acetamide], the pEC50 in data set [1] was 10.06. This molecule also displayed a half-maximal cytotoxic concentration (CC50) at 4 days in data set [2] of more than 500 nM.

With `Cn1nc(NS(C)(=O)=O)c2c(Cl)ccc(-n3c([C@H](Cc4cc(F)cc(F)c4)NC(=O)Cn4nc(C(F)F)c5c4C(F)(F)[C@@H]4C[C@H]54)nc4cc(-c5cccc(C(F)F)c5)ccc4c3=O)c21` (atropisomer, axis not shown) [Example 120], the negative logarithm of the EC50 (pEC50) in data set [1] was 9.42. This molecule also showed a CC50 at 4 days in data set [2] of more than 500 nM.

For the molecule `Cc1nccc(-c2ccc3c(=O)n(-c4ccc(Cl)c5c(NS(C)(=O)=O)nn(CC(F)F)c45)c([C@H](Cc4cc(F)cc(F)c4)NC(=O)Cn4nc(C(F)F)c5c4C(F)(F)[C@@H]4C[C@H]54)nc3c2)n1` (atropisomer, axis not shown) [Example 121, N-[(1S)-1-{3-[4-chloro-1-(2,2-difluoroethyl)-3-methanesulfonamido-1H-indazol-7-yl]-7-(2-methylpyrimidin-4-yl)-4-oxo-3,4-dihydroquinazolin-2-yl}-2-(3,5-difluorophenyl)ethyl]-2-[(2S,4R)-9-(difluoromethyl)-5,5-difluoro-7,8-diazatricyclo[4.3.0.0^2,^4]nona-1(6),8-dien-7-yl]acetamide], the pEC50 in data set [1] is 10.17. Moreover, the CC50 at 4 days in data set [2] was more than 500 nM.

As for `Cc1ccc(F)c(-c2ccc3c(=O)n(-c4ccc(Cl)c5c(NS(C)(=O)=O)nn(CC(F)F)c45)c([C@H](Cc4cc(F)cc(F)c4)NC(=O)Cn4nc(C(F)F)c5c4C(F)(F)[C@@H]4C[C@H]54)nc3c2)n1` (atropisomer, axis not shown) [Example 122], in data set [1], the negative logarithm of the EC50 (pEC50) was 10.10. The half-maximal cytotoxic concentration (CC50) at 4 days in data set [2] was more than 500 nM.

On to `Cc1ncc(-c2ccc3c(=O)n(-c4ccc(Cl)c5c(NS(C)(=O)=O)nn(CC(F)F)c45)c([C@H](Cc4cc(F)cc(F)c4)NC(=O)Cn4nc(C(F)F)c5c4C(F)(F)[C@@H]4C[C@H]54)nc3c2)s1` (atropisomer, axis not shown) [Example 123, N-[(1S)-1-{3-[4-chloro-1-(2,2-difluoroethyl)-3-methanesulfonamido-1H-indazol-7-yl]-7-(2-methyl-1,3-thiazol-5-yl)-4-oxo-3,4-dihydroquinazolin-2-yl}-2-(3,5-difluorophenyl)ethyl]-2-[(2S,4R)-9-(difluoromethyl)-5,5-difluoro-7,8-diazatricyclo[4.3.0.0^2,^4]nona-1(6),8-dien-7-yl]acetamide], for which, in data set [1], the negative-log EC50 (pEC50) was 10.06. This molecule also came in with a half-maximal cytotoxic concentration (CC50) at 4 days in data set [2] of more than 500 nM.

As for `COc1cnc(-c2ccc3c(=O)n(-c4ccc(Cl)c5c(NS(C)(=O)=O)nn(CC(F)F)c45)c([C@H](Cc4cc(F)cc(F)c4)NC(=O)Cn4nc(C(F)F)c5c4C(F)(F)[C@@H]4C[C@H]54)nc3c2)nc1` (atropisomer, axis not shown) [Example 124, N-[(1S)-1-{3-[4-chloro-1-(2,2-difluoroethyl)-3-methanesulfonamido-1H-indazol-7-yl]-7-(5-methoxypyrimidin-2-yl)-4-oxo-3,4-dihydroquinazolin-2-yl}-2-(3,5-difluorophenyl)ethyl]-2-[(2S,4R)-9-(difluoromethyl)-5,5-difluoro-7,8-diazatricyclo[4.3.0.0^2,^4]nona-1(6),8-dien-7-yl]acetamide], the pEC50 in data set [1] is 10.04. The same molecule registered a cytotoxic concentration (CC50) at 4 days in data set [2] of more than 500 nM.

With `COc1ncc(-c2ccc3c(=O)n(-c4ccc(Cl)c5c(NS(C)(=O)=O)nn(CC(F)F)c45)c([C@H](Cc4cc(F)cc(F)c4)NC(=O)Cn4nc(C(F)F)c5c4C(F)(F)[C@@H]4C[C@H]54)nc3c2)cn1` (atropisomer, axis not shown) [Example 125, N-[(1S)-1-{3-[4-chloro-1-(2,2-difluoroethyl)-3-methanesulfonamido-1H-indazol-7-yl]-7-(2-methoxypyrimidin-5-yl)-4-oxo-3,4-dihydroquinazolin-2-yl}-2-(3,5-difluorophenyl)ethyl]-2-[(2S,4R)-9-(difluoromethyl)-5,5-difluoro-7,8-diazatricyclo[4.3.0.0^2,^4]nona-1(6),8-dien-7-yl]acetamide], the pEC50 in data set [1] is 10.22. In data set [2], this molecule showed a CC50 at 4 days of more than 500 nM.

`CCc1cc(C)nc(-c2ccc3c(=O)n(-c4ccc(Cl)c5c(NS(C)(=O)=O)nn(CC(F)F)c45)c([C@H](Cc4cc(F)cc(F)c4)NC(=O)Cn4nc(C(F)F)c5c4C(F)(F)[C@@H]4C[C@H]54)nc3c2)n1` (atropisomer, axis not shown) [Example 126, N-[(1S)-1-{3-[4-chloro-1-(2,2-difluoroethyl)-3-methanesulfonamido-1H-indazol-7-yl]-7-(4-ethy1-6-methylpyrimidin-2-y1)-4-oxo-3,4-dihydroquinazolin-2-yl}-2-(3,5-difluorophenyl)ethyl]-2-[(2S,4R)-9-(difluoromethyl)-5,5-difluoro-7,8-diazatricyclo[4.3.0.0^2,^4]nona-1(6),8-dien-7-yl]acetamide]: the pEC50 in data set [1] was 9.92. The same molecule displayed a CC50 at 4 days in data set [2] of more than 500 nM.

In the case of `CC(C)(C)S(=O)(=O)c1cccc(-c2ccc3c(=O)n(-c4ccc(Cl)c5c(NS(C)(=O)=O)nn(CC(F)F)c45)c([C@H](Cc4cc(F)cc(F)c4)NC(=O)Cn4nc(C(F)F)c5c4C(F)(F)[C@@H]4C[C@H]54)nc3c2)c1` (atropisomer, axis not shown) [Example 127], the negative logarithm of the EC50 (pEC50) in data set [1] is 9.85. The molecule also yielded a CC50 at 4 days in data set [2] of more than 500 nM.
